Measurements from ChEMBL document CHEMBL1144464, “Mutations in fusA associated with posttherapy fusidic acid resistance in Clostridium difficile” (2007).
Converted amounts (≈) assume the structure as drawn.

How the values were obtained:
Assay type in all cases: functional
Clostridioides difficile [1] = experiment: Antibacterial activity against fusidic acid resistant Clostridium difficile 73:2 isolate with fusA I459R mutation after 8 to 13 days
Clostridioides difficile [2] = experiment: Antibacterial activity against fusidic acid resistant Clostridium difficile 49:3 isolate with fusA S116L and A374V mutation after 35 to 40 days
Clostridioides difficile [3] = experiment: Antibacterial activity against fusidic acid resistant Clostridium difficile 248:1 isolate after 1 day; details: 24 h
Clostridioides difficile [4] = experiment: Antibacterial activity against fusidic acid resistant Clostridium difficile 57:3 isolate with fusA S116L and A374V mutation after 35 to 40 days
Clostridioides difficile [5] = experiment: Antibacterial activity against fusidic acid resistant Clostridium difficile 62:2 isolate after 8 to 13 days
Clostridioides difficile [6] = experiment: Antibacterial activity against fusidic acid resistant Clostridium difficile 100:2 isolate with fusA V119A mutation after 8 to 13 days
Clostridioides difficile [7] = experiment: Antibacterial activity against fusidic acid resistant Clostridium difficile 107:3 isolate with fusA A459R mutation after 35 to 40 days
Clostridioides difficile [8] = experiment: Antibacterial activity against fusidic acid resistant Clostridium difficile 57:1 isolate after 1 day; details: 24 h
Clostridioides difficile [9] = experiment: Antibacterial activity against fusidic acid resistant Clostridium difficile 107:1 isolate after 1 day; details: 24 h
Clostridioides difficile [10] = experiment: Antibacterial activity against fusidic acid resistant Clostridium difficile 58:2 isolate with fusA H455Q mutation after 8 to 13 days
Clostridioides difficile [11] = experiment: Antibacterial activity against fusidic acid resistant Clostridium difficile 49:1 isolate after 1 day; details: 24 h
Clostridioides difficile [12] = experiment: Antibacterial activity against fusidic acid resistant Clostridium difficile 51:1 isolate after 1 day; details: 24 h
Clostridioides difficile [13] = experiment: Antibacterial activity against fusidic acid resistant Clostridium difficile 62:3 isolate with fusA A375 deletion after 35 to 40 days
Clostridioides difficile [14] = experiment: Antibacterial activity against fusidic acid resistant Clostridium difficile 62:1 isolate after 1 day; details: 24 h
Clostridioides difficile [15] = experiment: Antibacterial activity against fusidic acid resistant Clostridium difficile 49:2 isolate after 8 to 13 days
Clostridioides difficile [16] = experiment: Antibacterial activity against fusidic acid resistant Clostridium difficile 63:2 isolate with fusA T434I after 8 to 13 days
Clostridioides difficile [17] = experiment: Antibacterial activity against fusidic acid resistant Clostridium difficile 26:2 isolate with fusA D432N mutation after 8 to 13 days
Clostridioides difficile [18] = experiment: Antibacterial activity against fusidic acid resistant Clostridium difficile 51:2 isolate with fusA S449P mutation after 8 to 13 days
Clostridioides difficile [19] = experiment: Antibacterial activity against fusidic acid resistant Clostridium difficile 58:1 isolate with fusA H455Q mutation after 1 day; details: 24 h
Clostridioides difficile [20] = experiment: Antibacterial activity against fusidic acid resistant Clostridium difficile 26:1 isolate after 1 day; details: 24 h
Clostridioides difficile [21] = experiment: Antibacterial activity against fusidic acid resistant Clostridium difficile 100:1 isolate after 1 day; details: 24 h
Clostridioides difficile [22] = experiment: Antibacterial activity against fusidic acid resistant Clostridium difficile 63:1 isolate after 1 day; details: 24 h
Clostridioides difficile [23] = experiment: Antibacterial activity against fusidic acid resistant Clostridium difficile 248:3 isolate with fusA H455R mutation after 35 to 40 days
Clostridioides difficile [24] = experiment: Antibacterial activity against fusidic acid resistant Clostridium difficile 26:3 isolate with fusA M16I and H455N mutation after 35 to 40 days
Clostridioides difficile [25] = experiment: Antibacterial activity against fusidic acid resistant Clostridium difficile 72:1 isolate after 1 day; details: 24 h
Clostridioides difficile [26] = experiment: Antibacterial activity against fusidic acid resistant Clostridium difficile 73:1 isolate after 1 day; details: 24 h
Clostridioides difficile [27] = experiment: Antibacterial activity against fusidic acid resistant Clostridium difficile 72:2 isolate with fusA S116L and A374V mutation after 8 to 13 days

**Q.** `CC(=O)O[C@H]1C[C@@]2(C)[C@@H](C[C@@H](O)[C@H]3[C@@]4(C)CC[C@@H](O)[C@@H](C)[C@@H]4CC[C@@]32C)/C1=C(\CCC=C(C)C)C(=O)O` [FUSIDIC ACID] was tested. Which MIC (Clostridioides difficile [1]) did it give?
**A.** The MIC was > 256 µg/mL.

**Q.** What about the MIC (Clostridioides difficile [2]) of the same molecule?
**A.** Its MIC is > 256 µg/mL.

**Q.** And the MIC (Clostridioides difficile [3])?
**A.** Its MIC is 0.125 µg/mL (≈ 0.242 µM).

**Q.** And the MIC (Clostridioides difficile [4])?
**A.** Its MIC is > 256 µg/mL.

**Q.** What about the MIC (Clostridioides difficile [5]) of the same molecule?
**A.** The MIC was 0.25 µg/mL (≈ 0.484 µM).

**Q.** What about the MIC (Clostridioides difficile [6]) of the same molecule?
**A.** The MIC was > 256 µg/mL.

**Q.** What about the MIC (Clostridioides difficile [7]) of the same molecule?
**A.** Its MIC is > 256 µg/mL.

**Q.** And the MIC (Clostridioides difficile [8])?
**A.** The MIC was 0.38 µg/mL (≈ 0.735 µM).

**Q.** What about the MIC (Clostridioides difficile [9]) of the same molecule?
**A.** The MIC was 0.19 µg/mL (≈ 0.368 µM).

**Q.** And the MIC (Clostridioides difficile [10])?
**A.** The MIC was > 256 µg/mL.

**Q.** What about the MIC (Clostridioides difficile [11]) of the same molecule?
**A.** Its MIC is 0.25 µg/mL (≈ 0.484 µM).

**Q.** And the MIC (Clostridioides difficile [12])?
**A.** Its MIC is 0.25 µg/mL (≈ 0.484 µM).

**Q.** And the MIC (Clostridioides difficile [13])?
**A.** Its MIC is 4 µg/mL (≈ 7.74 µM).

**Q.** What about the MIC (Clostridioides difficile [14]) of the same molecule?
**A.** Its MIC is 0.25 µg/mL (≈ 0.484 µM).

**Q.** What about the MIC (Clostridioides difficile [15]) of the same molecule?
**A.** The MIC was 0.25 µg/mL (≈ 0.484 µM).

**Q.** What about the MIC (Clostridioides difficile [16]) of the same molecule?
**A.** Its MIC is 64 µg/mL (≈ 124 µM).

**Q.** And the MIC (Clostridioides difficile [17])?
**A.** The MIC was > 256 µg/mL.

**Q.** And the MIC (Clostridioides difficile [18])?
**A.** The MIC was > 256 µg/mL.

**Q.** And the MIC (Clostridioides difficile [19])?
**A.** Its MIC is > 256 µg/mL.

**Q.** And the MIC (Clostridioides difficile [20])?
**A.** Its MIC is 0.38 µg/mL (≈ 0.735 µM).

**Q.** And the MIC (Clostridioides difficile [21])?
**A.** The MIC was 0.38 µg/mL (≈ 0.735 µM).

**Q.** And the MIC (Clostridioides difficile [22])?
**A.** The MIC was 0.25 µg/mL (≈ 0.484 µM).

**Q.** What about the MIC (Clostridioides difficile [23]) of the same molecule?
**A.** Its MIC is > 256 µg/mL.

**Q.** And the MIC (Clostridioides difficile [24])?
**A.** The MIC was > 256 µg/mL.

**Q.** What about the MIC (Clostridioides difficile [25]) of the same molecule?
**A.** Its MIC is 0.25 µg/mL (≈ 0.484 µM).

**Q.** What about the MIC (Clostridioides difficile [26]) of the same molecule?
**A.** The MIC was 0.5 µg/mL (≈ 0.968 µM).

**Q.** What about the MIC (Clostridioides difficile [27]) of the same molecule?
**A.** The MIC was > 256 µg/mL.
